# Measured values from patent US20170007615A1, “Antibacterial Compounds” (priority 2014, published 2017).
# Read-outs that look alike come from different tables or passages of the source. Marks after values point to notes of the source that are not given here. Positions of bridges follow the written chain, without caps; N, C: chain ends. Non-standard residues stand in square brackets, D forms with d. Residues, ends and D or L forms follow the SMILES beside them. Dab = NCC[C@H](N)C(=O)O
# What was measured:
# B. cepacia (ATCC 25416) = assay: Antibacterial activity (MIC), alone and with colistin; type: cell-based, Burkholderia cepacia
# [1] = tested on: E. coli drug resistant clinical isolates; assay: Antibacterial activity (MIC) against drug resistant clinical isolates, alone and with PMBN; type: cell-based; settings: for MIC: Escherichia coli, read-out: MIC Compound alone
# [2] = tested on: P. aeruginosa drug resistant clinical isolates; assay: as above; type: cell-based; settings: for MIC: Pseudomonas aeruginosa, read-out: MIC Compound alone
# [3] = tested on: A. baumannii drug resistant clinical isolates; assay: as above; type: cell-based; settings: for MIC: Acinetobacter baumannii, read-out: MIC Compound alone
# [4] = tested on: E. cloaceae drug resistant clinical isolates; assay: as above; type: cell-based; settings: for MIC: read-out: MIC Compound alone
# [5] = tested on: P. aeruginosa (MMX 1497) colistin-resistant strain; assay: Antibacterial activity (MIC) against colistin-resistant strains, alone and with colistin; type: cell-based
# [6] = tested on: K. pneumonia colistin-resistant strains; assay: microbe, parasite or virus in culture; type: cell-based; settings: for MIC: Klebsiella pneumoniae
# [7] = tested on: E. coli colistin-resistant strains; assay: microbe, parasite or virus in culture; type: cell-based; settings: for MIC: Escherichia coli
# [8] = tested on: A. baumannii colistin-resistant strains; assay: microbe, parasite or virus in culture; type: cell-based; settings: for MIC: Acinetobacter baumannii
# E. coli (ATCC 25922) [9] = tested on: E. coli (ATCC 25922)
# [10] = tested on: A. baumannii (ATCC 19606)
# [11] = tested on: P. aeruginosa (ATCC 27853)
# E. cloaceae (ATCC 13047) [12] = tested on: E. cloaceae (ATCC 13047)
# [13] = tested on: F. philomiragia (ATCC 25015); settings: Table 9
# E. coli (ATCC 25922) [14] = assay: microbe, parasite or virus in culture; settings: Escherichia coli
# [15] = tested on: A. baumannii (ATCC 19606); assay: microbe, parasite or virus in culture; settings: Acinetobacter baumannii, ATCC19606, read-out: MIC Compound alone
# [16] = tested on: P. aeruginosa (ATCC 27853); assay: microbe, parasite or virus in culture; settings: Pseudomonas aeruginosa, ATCC27853, read-out: MIC Compound alone
# E. cloaceae (ATCC 13047) [17] = assay: microbe, parasite or virus in culture; settings: Enterobacter cloacae, ATCC13047, read-out: MIC Compound alone
# [18] = tested on: F. philomiragia (ATCC 25015); assay: microbe, parasite or virus in culture; settings: Francisella philomiragia, ATCC25015, read-out: MIC Compound alone
# E. coli (NDM-1; CTX-M15) = assay: Septicaemia infection model, survival; settings: two doses, PMBN 50 mg/kg SC alone
structure (smiles),measurement,setting,value
"CCNC(=O)Nc1nc2cc(-c3cnc([C@H](C)O)nc3)cc(-c3ccccn3)c2s1 [Example 23 (WO2013/138860), 1-ethyl-3-[5-[2-[(1S)-1-hydroxyethyl]pyrimidin-5-yl]-7-(2-pyridyl)-1,3-benzothiazol-2-yl]urea]",MIC,"B. cepacia (ATCC 25416); Burkholderia cepacia, ATCC25416, read-out: MIC Compound alone",> 64 µg/mL
same,MIC of Compound (μg/ml) in the presence of colistin (2 μg/ml),"B. cepacia (ATCC 25416); Table 8, colistin non-inhibitory",8 µg/mL
same,MIC of Compound (μg/ml) in the presence of PMBN (128 μg/ml),[1]; E. coli (MMX 1312),≦0.008 μg/ml
same,MIC of Compound (μg/ml) in the presence of PMBN (128 μg/ml),[1]; E. coli (MMX 2232),≦0.008 μg/ml
same,MIC,[1]; E. coli (MMX 1312),> 64 µg/mL
same,MIC,[1]; E. coli (MMX 2232),> 64 µg/mL
same,MIC of Compound (μg/ml) in the presence of PMBN (128 μg/ml),[2]; P. aeruginosa (MMX3007),0.25 µg/mL
same,MIC of Compound (μg/ml) in the presence of PMBN (128 μg/ml),[2]; P. aeruginosa (MMX3022),0.25 µg/mL
same,MIC of Compound (μg/ml) in the presence of PMBN (128 μg/ml),[2]; P. aeruginosa (MMX3025),0.12 µg/mL
same,MIC of Compound (μg/ml) in the presence of PMBN (128 μg/ml),[2]; P. aeruginosa (NCTC13437),0.25 µg/mL
same,MIC,"[2]; NCTC13437, P. aeruginosa (NCTC13437)",> 64 µg/mL
same,MIC,[2]; P. aeruginosa (MMX3007),> 64 µg/mL
same,MIC,[2]; P. aeruginosa (MMX3022),> 64 µg/mL
same,MIC,[2]; P. aeruginosa (MMX3025),> 64 µg/mL
same,MIC of Compound (μg/ml) in the presence of PMBN (128 μg/ml),[3]; A. baumannii (MMX 4454),0.5 µg/mL
same,MIC of Compound (μg/ml) in the presence of PMBN (128 μg/ml),[3]; A. baumannii (MMX 6331),0.25 µg/mL
same,MIC,[3]; A. baumannii (MMX 4454),2 µg/mL
same,MIC,[3]; A. baumannii (MMX 6331),> 64 µg/mL
same,MIC of Compound (μg/ml) in the presence of PMBN (128 μg/ml),[4]; E. cloaceae (MMX 6087),2 µg/mL
same,MIC,[4]; E. cloaceae (MMX 6087),> 64 µg/mL
same,MIC of Compound (μg/ml) in the presence of PMBN (128 μg/ml),[4]; E. cloaceae (MMX 6093),0.5 µg/mL
same,MIC,[4]; E. cloaceae (MMX 6093),> 16 µg/mL
same,MIC of Compound (μg/ml) in the presence of PMBN (128 μg/ml),[4]; E. cloaceae (MMX 6095),8 µg/mL
same,MIC,[4]; E. cloaceae (MMX 6095),> 64 µg/mL
same,MIC of Compound (μg/ml) in the presence of PMBN (128 μg/ml),[4]; E. cloaceae (MMX 6304),1 µg/mL
same,MIC,[4]; E. cloaceae (MMX 6304),> 16 µg/mL
same,MIC of Compound (μg/ml) in the presence of colistin (2 μg/ml),[5],4 µg/mL
same,MIC,"[5]; Pseudomonas aeruginosa, read-out: MIC Compound alone",> 64 µg/mL
same,MIC of Compound (μg/ml) in the presence of colistin (2 μg/ml),[6]; K. pneumonia colistin-resistant strain #1,0.25 µg/mL
same,MIC of Compound (μg/ml) in the presence of colistin (2 μg/ml),[6]; K. pneumonia colistin-resistant strain #2,0.25 µg/mL
same,MIC of Compound (μg/ml) in the presence of colistin (2 μg/ml),[6]; K. pneumonia colistin-resistant strain #3,0.12 µg/mL
same,MIC,"[6]; read-out: MIC Compound alone, K. pneumonia colistin-resistant strain #1",1 µg/mL
same,MIC,"[6]; read-out: MIC Compound alone, K. pneumonia colistin-resistant strain #2",1 µg/mL
same,MIC,"[6]; read-out: MIC Compound alone, K. pneumonia colistin-resistant strain #3",2 µg/mL
same,MIC of Compound (μg/ml) in the presence of colistin (2 μg/ml),[7]; E. coli colistin-resistant strain #1,2 µg/mL
same,MIC of Compound (μg/ml) in the presence of colistin (2 μg/ml),[7]; E. coli colistin-resistant strain #2,1 µg/mL
same,MIC of Compound (μg/ml) in the presence of colistin (2 μg/ml),[7]; E. coli colistin-resistant strain #3,1 µg/mL
same,MIC of Compound (μg/ml) in the presence of colistin (2 μg/ml),[7]; E. coli colistin-resistant strain #26,1 µg/mL
same,MIC of Compound (μg/ml) in the presence of colistin (2 μg/ml),[7]; E. coli colistin-resistant strain #43,1 µg/mL
same,MIC,"[7]; read-out: MIC Compound alone, E. coli colistin-resistant strain #1",4 µg/mL
same,MIC,"[7]; read-out: MIC Compound alone, E. coli colistin-resistant strain #2",4 µg/mL
same,MIC,"[7]; read-out: MIC Compound alone, E. coli colistin-resistant strain #3",8 µg/mL
same,MIC,"[7]; read-out: MIC Compound alone, E. coli colistin-resistant strain #26",8 µg/mL
same,MIC,"[7]; read-out: MIC Compound alone, E. coli colistin-resistant strain #43",4 µg/mL
same,MIC of Compound (μg/ml) in the presence of colistin (2 μg/ml),[8]; A. baumannii colistin-resistant strain #1,0.015 µg/mL
same,MIC of Compound (μg/ml) in the presence of colistin (2 μg/ml),[8]; A. baumannii colistin-resistant strain #2,0.03 µg/mL
same,MIC of Compound (μg/ml) in the presence of colistin (2 μg/ml),[8]; A. baumannii colistin-resistant strain #3,<=0.008 μg/ml
same,MIC,"[8]; read-out: MIC Compound alone, A. baumannii colistin-resistant strain #1",≤ 0.03 µg/mL
same,MIC,"[8]; read-out: MIC Compound alone, A. baumannii colistin-resistant strain #2",4 µg/mL
same,MIC,"[8]; read-out: MIC Compound alone, A. baumannii colistin-resistant strain #3",≤ 0.03 µg/mL
same,MIC of Compound (μg/ml) in the presence of PMBN (128 μg/ml),"E. coli (ATCC 25922) [9]; Table 1, (b) No effect",0.06 µg/mL
same,MIC of Compound (μg/ml) in the presence of Colistin (1 μg/ml),"E. coli (ATCC 25922) [9]; Table 2, colistin sub-inhibitory",1 µg/mL
same,MIC of Compound (μg/ml) in the presence of PMB (0.5 μg/ml),"E. coli (ATCC 25922) [9]; Table 3, PMB sub-inhibitory",1 µg/mL
same,MIC of Compound (μg/ml) in the presence of PMBN (32 μg/ml),"E. coli (ATCC 25922) [9]; Table 12, (b) No significant effect",0.12 µg/mL
same,MIC of Compound (μg/ml) in the presence of PMBN (128 μg/ml),[10]; Table 4,0.25 µg/mL
same,MIC of Compound (μg/ml) in the presence of PMBN (128 μg/ml),[11]; Table 5,<=0.008 μg/ml
same,MIC of Compound (μg/ml) in the presence of PMBN (128 μg/ml),E. cloaceae (ATCC 13047) [12]; Table 6,0.5 µg/mL
same,MIC Compound alone,E. cloaceae (ATCC 13047) [12]; Table 7,>64 µg/mL
same,MIC of Compound (μg/ml) in the presence of colistin (2 μg/ml),"E. cloaceae (ATCC 13047) [12]; Table 7, colistin non-inhibitory",<=0.12 μg/ml
same,MIC of Compound (μg/ml) in the presence of PMBN (32 μg/ml),[13],2 µg/mL
same,MIC,"E. coli (ATCC 25922) [14]; ATCC25922, read-out: MIC Compound alone, Table 1",4 µg/mL
same,MIC,"E. coli (ATCC 25922) [14]; ATCC25922, read-out: MIC Compound alone, Table 2",4 µg/mL
same,MIC,"E. coli (ATCC 25922) [14]; ATCC25922, read-out: MIC Compound alone, Table 3",4 µg/mL
same,MIC,"E. coli (ATCC 25922) [14]; ATCC25922, read-out: MIC Compound alone, Table 12",> 2 µg/mL
same,MIC,[15],4 µg/mL
same,MIC,[16],> 64 µg/mL
same,MIC,E. cloaceae (ATCC 13047) [17],> 64 µg/mL
same,MIC,[18],> 16 µg/mL
"CC(C)C[C@@H]1NC(=O)[C@@H](Cc2ccccc2)NC(=O)[C@H](CCN)NC(=O)[C@@H](NC(=O)[C@H](CCN)NC(=O)[C@@H](N)[C@@H](C)O)CCNC(=O)[C@H]([C@@H](C)O)NC(=O)[C@H](CCN)NC(=O)[C@H](CCN)NC1=O [PMBN, Polymyxin B nonapeptide, reference compound] (H-T[Dab][Dab][Dab][dF]L[Dab][Dab]T; lactam 3-C (inferred); N-terminus assumed)",MIC PMBN alone,E. coli (ATCC 25922) [9]; ATCC 25922,>128^(a) μg/ml
same,MIC PMBN alone,[10]; ATCC 19606,>128^(a) μg/ml
same,MIC PMBN alone,[11]; ATCC 27853,>128^(a) μg/ml
same,MIC PMBN alone,E. cloaceae (ATCC 13047) [12]; ATCC 13047,>128^(a) μg/ml
same,MIC PMBN alone,[13]; (a) No measurable antibacterial activity,>32^(a) μg/ml
same,survival at the end of 5 days,E. coli (NDM-1; CTX-M15),No mice survived
